From PubChem BioAssay (NCI)
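Protocol summary: plate cells (96-well), add compound at 5 concentrations, incubate 48 h, interpolate endpoints linearly. TGI denotes the concentration required for complete inhibition of growth.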

Columns and labels:
Assay in all cases: NCI-60 cell line screen, 48 h
HCT-15 colon = test system: HCT-15 colon
A498 renal = test system: A498 renal
SN12C renal = test system: SN12C renal
UACC-257 melanoma = test system: UACC-257 melanoma
HOP-62 NSCLC = test system: HOP-62 NSCLC
MDA-MB-435 = test system: MDA-MB-435
OVCAR-4 ovarian = test system: OVCAR-4 ovarian
HOP-92 NSCLC = test system: HOP-92 NSCLC
HCT-116 colon = test system: HCT-116 colon
TK-10 renal = test system: TK-10 renal
NCI-H522 lung = test system: NCI-H522 lung
M14 melanoma = test system: M14 melanoma
SF-295 CNS = test system: SF-295 CNS
NCI-H23 lung = test system: NCI-H23 lung
MCF7 breast = test system: MCF7 breast
T-47D breast = test system: T-47D breast
SF-268 CNS = test system: SF-268 CNS
UACC-62 melanoma = test system: UACC-62 melanoma
A549 NSCLC = test system: A549 NSCLC
MOLT-4 leukemia = test system: MOLT-4 leukemia
KM12 colon = test system: KM12 colon
RXF 393 renal = test system: RXF 393 renal
CAKI-1 renal = test system: CAKI-1 renal
BT-549 breast = test system: BT-549 breast
SK-MEL-5 melanoma = test system: SK-MEL-5 melanoma
EKVX NSCLC = test system: EKVX NSCLC
NCI-H226 lung = test system: NCI-H226 lung
LOX IMVI melanoma = test system: LOX IMVI melanoma
IGROV1 ovarian = test system: IGROV1 ovarian
SNB-19 CNS = test system: SNB-19 CNS
786-0 renal = test system: 786-0 renal
HS 578T breast = test system: HS 578T breast
K-562 leukemia = test system: K-562 leukemia
OVCAR-3 ovarian = test system: OVCAR-3 ovarian
SF-539 CNS = test system: SF-539 CNS
HCC-2998 colon = test system: HCC-2998 colon
DU-145 prostate = test system: DU-145 prostate
MDA-N = test system: MDA-N
SR leukemia = test system: SR leukemia
ACHN renal = test system: ACHN renal
PC-3 prostate = test system: PC-3 prostate
OVCAR-8 ovarian = test system: OVCAR-8 ovarian
RPMI-8226 leukemia = test system: RPMI-8226 leukemia
NCI-H460 lung = test system: NCI-H460 lung
OVCAR-5 ovarian = test system: OVCAR-5 ovarian
HT29 colon = test system: HT29 colon
SK-OV-3 ovarian = test system: SK-OV-3 ovarian
MDA-MB-231 breast = test system: MDA-MB-231 breast
NCI/ADR-RES ovarian = test system: NCI/ADR-RES ovarian
SK-MEL-2 melanoma = test system: SK-MEL-2 melanoma
UO-31 renal = test system: UO-31 renal
COLO 205 colon = test system: COLO 205 colon
U251 CNS = test system: U251 CNS
SNB-75 CNS = test system: SNB-75 CNS
MALME-3M melanoma = test system: MALME-3M melanoma
SK-MEL-28 melanoma = test system: SK-MEL-28 melanoma
SW-620 colon = test system: SW-620 colon

In the case of `O=C1c2cc([N+](=O)[O-])ccc2NC2C(O)c3ccccc3N12` (stereo not given), the TGI (HCT-15 colon) is reported as over 100 µM, the TGI (A498 renal) is reported as 41.8 µM and the TGI (SN12C renal) is reported as over 100 µM. The TGI (UACC-257 melanoma) was 55.3 µM, the TGI (HOP-62 NSCLC) was over 100 µM and the TGI (MDA-MB-435) was over 100 µM. The TGI (OVCAR-4 ovarian) was 55.8 µM, the TGI (HOP-92 NSCLC) was 53.6 µM and the TGI (HCT-116 colon) was over 100 µM. It also gave a TGI (TK-10 renal) of 58.1 µM, a TGI (NCI-H522 lung) of 38.7 µM and a TGI (M14 melanoma) of over 100 µM. It also gave a TGI (SF-295 CNS) of over 100 µM, a TGI (NCI-H23 lung) of 72.5 µM and a TGI (MCF7 breast) of over 100 µM. For the same molecule, the TGI (T-47D breast) was 49.6 µM, the TGI (SF-268 CNS) was over 100 µM and the TGI (UACC-62 melanoma) was 47.9 µM. The TGI (A549 NSCLC) was over 100 µM, the TGI (MOLT-4 leukemia) was 49.1 µM and the TGI (KM12 colon) was over 100 µM. For the same molecule, the TGI (RXF 393 renal) was 34.5 µM, the TGI (CAKI-1 renal) was 54 µM and the TGI (BT-549 breast) was 61.4 µM. The TGI (SK-MEL-5 melanoma) was over 100 µM, the TGI (EKVX NSCLC) was 43 µM and the TGI (NCI-H226 lung) was 82.9 µM. For the same molecule, the TGI (LOX IMVI melanoma) was over 100 µM, the TGI (IGROV1 ovarian) was 75.3 µM and the TGI (SNB-19 CNS) was over 100 µM. For the same molecule, the TGI (786-0 renal) was 64.4 µM, the TGI (HS 578T breast) was 74.3 µM and the TGI (K-562 leukemia) was 87.8 µM. The TGI (OVCAR-3 ovarian) was over 100 µM, the TGI (SF-539 CNS) was 74.7 µM and the TGI (HCC-2998 colon) was over 100 µM. It also gave a TGI (DU-145 prostate) of 94.5 µM, a TGI (MDA-N) of over 100 µM and a TGI (SR leukemia) of 56.2 µM. The TGI (ACHN renal) was 80.7 µM, the TGI (PC-3 prostate) was over 100 µM and the TGI (OVCAR-8 ovarian) was 65 µM. It also gave a TGI (RPMI-8226 leukemia) of 44.1 µM, a TGI (NCI-H460 lung) of 97 µM and a TGI (OVCAR-5 ovarian) of over 100 µM. The TGI (HT29 colon) was over 100 µM, the TGI (SK-OV-3 ovarian) was 36 µM and the TGI (MDA-MB-231 breast) was over 100 µM. It also gave a TGI (NCI/ADR-RES ovarian) of 63.1 µM, a TGI (SK-MEL-2 melanoma) of over 100 µM and a TGI (UO-31 renal) of over 100 µM. It also gave a TGI (COLO 205 colon) of over 100 µM, a TGI (U251 CNS) of over 100 µM and a TGI (SNB-75 CNS) of 44.8 µM.

`CC(CC(=O)O)(CC(=O)O)C(=O)O` gave a TGI (HCT-15 colon) of over 100 µM, a TGI (A498 renal) of over 100 µM and a TGI (SN12C renal) of over 100 µM. It also gave a TGI (UACC-257 melanoma) of over 100 µM, a TGI (HOP-62 NSCLC) of over 100 µM and a TGI (MDA-MB-435) of over 100 µM. It also gave a TGI (OVCAR-4 ovarian) of over 100 µM, a TGI (MALME-3M melanoma) of over 100 µM and a TGI (HOP-92 NSCLC) of over 100 µM. The TGI (SK-MEL-28 melanoma) was over 100 µM, the TGI (HCT-116 colon) was over 100 µM and the TGI (TK-10 renal) was over 100 µM. The TGI (NCI-H522 lung) was over 100 µM, the TGI (M14 melanoma) was over 100 µM and the TGI (SF-295 CNS) was over 100 µM. For the same molecule, the TGI (NCI-H23 lung) was over 100 µM, the TGI (MCF7 breast) was over 100 µM and the TGI (T-47D breast) was over 100 µM. It also gave a TGI (SF-268 CNS) of over 100 µM, a TGI (UACC-62 melanoma) of over 100 µM and a TGI (A549 NSCLC) of over 100 µM. For the same molecule, the TGI (MOLT-4 leukemia) was over 100 µM, the TGI (KM12 colon) was over 100 µM and the TGI (RXF 393 renal) was over 100 µM. The TGI (CAKI-1 renal) was over 100 µM, the TGI (BT-549 breast) was over 100 µM and the TGI (SK-MEL-5 melanoma) was over 100 µM. The TGI (EKVX NSCLC) was over 100 µM, the TGI (LOX IMVI melanoma) was over 100 µM and the TGI (IGROV1 ovarian) was over 100 µM. For the same molecule, the TGI (SNB-19 CNS) was over 100 µM, the TGI (786-0 renal) was over 100 µM and the TGI (HS 578T breast) was over 100 µM. For the same molecule, the TGI (K-562 leukemia) was over 100 µM, the TGI (OVCAR-3 ovarian) was over 100 µM and the TGI (SF-539 CNS) was over 100 µM. The TGI (HCC-2998 colon) was over 100 µM, the TGI (DU-145 prostate) was over 100 µM and the TGI (MDA-N) was over 100 µM. The TGI (SR leukemia) was over 100 µM, the TGI (ACHN renal) was over 100 µM and the TGI (PC-3 prostate) was over 100 µM. It also gave a TGI (OVCAR-8 ovarian) of over 100 µM, a TGI (RPMI-8226 leukemia) of over 100 µM and a TGI (NCI-H460 lung) of over 100 µM. For the same molecule, the TGI (OVCAR-5 ovarian) was over 100 µM, the TGI (HT29 colon) was over 100 µM and the TGI (SK-OV-3 ovarian) was over 100 µM. The TGI (MDA-MB-231 breast) was over 100 µM, the TGI (SW-620 colon) was over 100 µM and the TGI (NCI/ADR-RES ovarian) was over 100 µM. The TGI (SK-MEL-2 melanoma) was over 100 µM, the TGI (UO-31 renal) was over 100 µM and the TGI (COLO 205 colon) was over 100 µM. The TGI (U251 CNS) was over 100 µM and the TGI (SNB-75 CNS) was over 100 µM.
